Data: patent publication US6482436B1, “Magnetically responsive composition” (FeRx Incorporated, priority 1993, dated 2002)
Converted amounts (≈) assume the structure as drawn.

Key:
[1] = Octanol/buffer (pH 7.4) partition coefficient; type: physicochemical
Description: (§1) Certain porphyrins are photosensitizing compounds useful in photodynamic therapy against tumors. […] Several classes of photosensitizers were screened for comparative binding to iron:carbon particles of various composition. The wavelength near the activation wavelength (often the λmax) of a particular photosensitizer was used for quantitative drug measurements. […] The photosensitizers tested were hematoporphyrin derivative (HPD); benzoporphyrin derivative monoacid A (BPD-ma); Photofrin® porfimer sodium (PF2); and clorin e6. For the binding studies, 10 mg of carbon or 50 mg of iron:carbon particles were optimum. An octanol/buffer (pH 7.4) partition coefficient for the four compounds was as follows: HPD=1; chlorin e6=1.1; PF2=0.1≧; and BPD-ma=4000>.

[2] = Comparative binding of photosensitizers to iron:carbon particles; type: physicochemical; details: 80 mcg/ml (0.11 mM) in PBS pH 7.4, 50 mg particles
Description: as §1

[3] = Adsorption curves and adsorption constants of pharmaceutical agents on iron:carbon carrier particles; type: physicochemical
Experimental: Adsorption upon the particles of various types of pharmaceutical agents at a range of concentrations of the pharmaceutical agent in the absorption solution was performed to determine the absorption curves and absorption constants for each compound as follows: A 16-mer anti-C-Myc oligonucleotide useful in antisense gene-directed therapy is an all phosphorothioate oligodeoxynucleotide, fluorescein-labeled at 5′ end (Macromolecular Resources, Fort Collins, Colo.). […] Unbound drug in adsorption supernatants was determined from the fluorescein fluorescence (Exc. 495 nm, em. 549 nm) using a standard curve. Hematoporphyrin dihydrochloride (Sigma Chemical, USA, H-1875, Lot #23H0879) is a photosensitizer useful in tumor therapy. The compound accumulates by biological processes in certain types of tumor tissue. Upon exposure to light, such as provided by a laser, the compound undergoes a chemical transformation to produce oxygen singlets that are toxic to cells in which it has accumulated. A stock adsorption solution was prepared and drug concentration was determined by spectrophotometry according to G. Garbo et al. Anal. […] The adsorption equation determined by computer analysis using commercially available software was: […] 6-Mercaptopurine sodium salt (provided by Dr. Gruber, Burroughs Wellcome, Lot #7P2774) is an anti-inflammatory agent. […] Drug concentration in adsorption supernatants was determined by spectrophotometry (standard curve: […] Drug concentrations in adsorption supernatants determined by spectrophotometry yielded the following equation for the concentration curve: […] Drug concentration in adsorption supernatants as determined by spectrophotometry yield the following equation for the concentration curve: […] Concentration was determined by absorbance at 253 nm (λmax=253 nm in saline solution).

[4] = Release of adsorbed Re into saline over 24 hours; type: physicochemical
Experimental: (§2) An adaptation of a colorimetric Re assay used in the field of metallurgy was used to determine the adsorption of the Re onto carrier particles having a 70:30 iron:carbon ratio. In brief, a 0.1 to 0.5 ml sample was placed in a solution containing 1.0 ml of HCl, 1.3 ml of −α furildoxime (6% in acetone), 0.5 ml of 10% stannous chloride and sufficient water to make 5.0 ml. The mixture was heated to 45° C. for 20 minutes and allowed to cool to room temperature. The absorbance of Re in the solution was measured at 532 nm. The sensitivity of the assay was to about 5 mcg Re. […] As with other drugs, the % binding of Re in the adsorption medium decreases as the Re to carbon ratio increases. […] Release over 24 hours of the Re into physiological saline at ambient temperature from the various carbons preloaded with adsorbed Re was 50% by weight.
Less than 10% of the Re was released upon incubation under efflux conditions in saline over 24 hours. The low binding of Re to the carrier particles is consistent with the low binding of other charged, small ionic molecules to activated carbon as compared with the high affinity binding of hydrophobic aromatic molecules. These findings are consistent with use of the carrier particles of the invention with adsorbed Re or Tc as imaging and therapeutic agents.

[5] = Re binding to a series of carbons (colorimetric Re assay); type: physicochemical; details: ambient temperature
Experimental: as §2

[6] = test system: carcinosarcoma Walker 256; assay: Treatment of Walker 256 carcinosarcoma under the tail skin of rats: life span and tumor dissolution; type: in vivo, rats of the Wistar Line; details: group II; water solution i.v. 2 mg/kg during 5 days; versus control group I (21±1.5 days); P<0.05
Experimental: Tests were carried out on male rats of the Wistar Line (bred at Stolbovaya Station of the USSR Academy of Medical Sciences). The rats were infused with carcinosarcoma Walker 256 under the tail skin. When the tumorous volume averaged 986±98 mm^3 the animals were divided into 4 groups, 10 rats in each. The first group (group I) was a control group, and groups II through IV were experimental groups.
The animals in group II were given intravenous injections of a water solution of rubomicine in the amount of 2 mg/kg of body weight during 5 days (the model of traditional use of such anti-cancerous preparations in clinics). The rats in group III were injected with a suspension of ferrocarbon dispersion produced by the previously known method described in European Patent Office Publication No. 0 451 299 A1. The particles comprised iron/carbon in a volume percent ratio of 60:40. The dosage of ferrocarbon particles was 160 mg/kg of body weight, and the dosage of adsorbed rubomicine thereon was 3.2 mg/g of particles. This suspension was injected into the tail vein after placing on the surface of the tumor a permanent magnet with a magnetic field intensity of 6000 oersteds. Localization of the suspension in the tumorous growth zone under control of the externally placed magnetic field was monitored by x-ray pictures. […]

[7] = Effect of adsorption medium composition on Dox binding to carrier particles; type: physicochemical; details: six test adsorption media; particles first in viscosity agent, Dox/saline added later
Experimental: Additional studies were conducted to compare the effect of the composition of the adsorption solution on the binding of the Dox to carrier particles having an iron:carbon ratio in the range 60:40 to 80:20. The following six test adsorption media compositions were formulated to provide sufficient viscosity to keep the carrier particles physically separate during adsorption of the Dox. The particles were first placed in the viscosity agent and the Dox/saline solution was later added.
1. 10% mannitol; 2% sodium carboxymethyl cellulose (CMC) (medium viscosity); 2% polyvinyl pyrrolidone (PVP in 50 mM citrate phosphate buffer
2. 5% mannitol; 2% CMC; 2% PVP in 50 mM citrate phosphate buffer.
3. 5% mannitol; 2% CMC; 2% PVP; 5% sorbitol in 50 mM citrate phosphate buffer.
4. 10% mannitol; 1% CMC; 2% PVP (K15) in 10 mM potassium phosphate buffer (pH 7.4).
5. 10% mannitol; 1% sodium CMC; potassium phosphate buffer (pH 7.4).
6. 5% sorbitol; 1% sodium CMC; 2% PVP (K1 5); 5% mannitol; in potassium phosphate buffer (pH 7.4)

tumor cells in culture = assay: In vitro cytotoxicity evaluation with magnetic field retention of carrier particles; type: cell-based; details: Homo sapiens; released paclitaxel: with or without magnet
Experimental: The IC50 for free paclitaxel alone was identical (5 ng/mL) to paclitaxel released from the carrier particles with or without magnet (5 ng/mL).

[8] = test system: human squamous carcinoma cell line, SCC-9; assay: Long-term CF clonogenic assay; type: cell-based; details: colonies after 2-3 weeks
Experimental: A separate long-term CF clonogenic assay was evaluated concurrently. In this assay, cells were plated on 35 mm petri dishes and exposed to drug and controls as outlined above. Treated cells were incubated for 2-3 weeks to allow time for colonies to establish. These colonies were fixed in 2% acetic acid and 8% ethanol and stained with crystal violet. The colonies were counted under a Bella Glass Plate Reader.

[9] = Binding and release of BPD-ma with prototype iron:carbon carrier particles (MTCs); type: physicochemical; details: from a 10-fold increase in the initial concentration of the drug; isopropanol medium, 18 hours
Experimental: In order to achieve higher loading levels of BPD-ma, the binding capacity and fractional binding of the drug to four prototype iron:carbon carrier particles (MTCs, or, magnetic targeted compounds) was tested using 1.4 mM drug in isopropanol (with 0.5% 0.02 M acetic acid) as the adsorption medium and a longer equilibration period of 18 hours.

[10] = 75:25 Type K, Saline solution, equilibration 0.5 hr
[11] = 80:20 Type K, 0.9% NaCl, pH 10.4, equilibration 2 hrs

| Compound | octanol/buffer partition coefficient [1] | % binding, % ([2]; iron:carbon 30:70 Type A) | % binding, mg/mg % ([2]; iron:carbon 30:70 Type A) | % binding, % ([2]; iron:carbon 30:70 Type E) | % binding, mg/mg % ([2]; iron:carbon 30:70 Type E) | further results |
| --- | --- | --- | --- | --- | --- | --- |
| clorin e6 | 1.1 | 69.9% | 0.8 mg/mg % | 68.8% | 0.7 mg/mg % |  |
| CC[C@@]1(O)C(=O)OCc2c1cc1n(c2=O)Cc2cc3ccccc3nc2-1 [Camptothecin] |  |  |  |  |  | Adsorption constant [3, 10]: 521 (mg/ml)^−1; Maximum adsorption (% of carrier weight) [3, 10]: 11 % of carrier weight; Maximum adsorption (% of carrier weight) ([3]; 80:20 Type K, C/E 1:1 (chloroform:ethanol), equilibration 3 hrs, footnote: Below detection limit): 0^2 % of carrier weight |
| Photofrin® porfimer sodium [PF2] | ≤ 0.1 | 11.4% | 0.13 mg/mg % | 7.2% | 0.08 mg/mg % |  |
| [Re] [Re, rhenium] |  |  |  |  |  | Re released over 24 hours ([4]; from iron:carbon carrier particles, efflux conditions in saline): Less than 10%; release of Re over 24 hours ([4]; from the various carbons preloaded with Re, physiological saline, ambient temperature): 50 % by weight; Re binding to a series of carbons ([5]; 30 mg carbon in the adsorption medium): about 35%; Re binding to a series of carbons ([5]; 180 mg carbon in the adsorption medium): about 90% |
| Sc1ncnc2nc[nH]c12.[Na] [6-MP Mercaptopurine, 6-Mercaptopurine sodium salt] |  |  |  |  |  | Adsorption constant [3, 11]: 0.24 ± 0.064 (mg/ml)^−1; Maximum adsorption (% of carrier weight) [3, 11]: 11.0 ± 0.97 % of carrier weight |
| COc1cccc2c1C(=O)c1c(O)c3c(c(O)c1C2=O)C[C@@](O)(C(C)=O)C[C@@H]3O[C@H]1C[C@H](N)[C@H](O)[C@H](C)O1 [rubomicine] |  |  |  |  |  | life span following treatment increased by an average of [6]: 4.5 days |
| C[C@@H]1[C@H](O)[C@@H](C)/C=C/C=C/C=C/C=C/C=C/C=C/C=C/[C@H](O[C@@H]2O[C@H](C)[C@@H](O)[C@H](N)[C@@H]2O)C[C@@H]2O[C@](O)(C[C@@H](O)C[C@@H](O)[C@H](O)CC[C@@H](O)C[C@@H](O)CC(=O)O[C@H]1C)C[C@H](O)[C@H]2C(=O)O [Amphotericin B] |  |  |  |  |  | Maximum adsorption (% of carrier weight) ([3]; 80:20 Type K, 0.9% NaCl pH 12 (KOH), equilibration 24 hrs): 10.4 ± 0.55 % of carrier weight |
| COc1cccc2c1C(=O)c1c(O)c3c(c(O)c1C2=O)C[C@@](O)(C(=O)CO)C[C@@H]3O[C@H]1C[C@H](N)[C@H](O)[C@H](C)O1 [doxorubicin] |  |  |  |  |  | adsorption of Dox to the carrier particles by adsorption medium [7]: highest adsorption of Dox to the carrier particles was obtained using formulae 4, 5, and 6 |
| hematoporphyrin derivative [HPD] | 1 | 41.9% | 0.5 mg/mg % | 37.0% | 0.4 mg/mg % |  |
| CC(=O)O[C@H]1C(=O)[C@@]2(C)[C@H]([C@H](OC(=O)c3ccccc3)[C@]3(O)C[C@H](OC(=O)[C@H](O)[C@@H](NC(=O)c4ccccc4)c4ccccc4)C(C)=C1C3(C)C)[C@]1(OC(C)=O)CO[C@@H]1C[C@@H]2O [paclitaxel] |  |  |  |  |  | IC50 (tumor cells in culture): 5 ng/mL (≈ 5.86 nM); IC50 [8]: 3 ng/mL (≈ 3.51 nM) |
| benzoporphyrin derivative monoacid A [BPD-ma] | > 4000 | 30.1% | 0.33 mg/mg % | 23.0% | 0.25 mg/mg % | increase in binding capacity [9]: 30 fold |
